Data: patent US9499585B2, “Bioactive peptide complexes” (priority 2012, dated 2016)
No end group written: not given here.

What was measured:
[1] = tested on: A/Aichi/2/68 (H3N2) flu strain; format: in vivo, white mice
[2] = Zn^++ ion binding with A1 peptide by light-scattering method; format: physicochemical; settings: Zn(NO3)2; light scattering at 400 nm; aggregates dissolve on adding EDTA
Text: Zn^++ ion binding with alloferon 1 (A1) and its homologs was studied by the method described [Shi Y., Beger R. D., Berg J. M. Metal binding properties of single amino acid deletion mutants of zinc finger peptides: studies using cobalt(II) as a spectroscopic prob. Biophys. J., 1993, Vol. 64, p. 749-753]. Zn^++ ion binding with A1 peptide was studied by the light-scattering method using ISS, Campaign, IL fluorimeter at 400 nm and excitation light 398 nm.
For analysis conditions refer to Shi Y. et al. (1993)
A—(open circles) A1 and Zn(N03)2. interaction Excess molar quantity of Zn^++ ion comparing to peptide was 1:10. Firm line—peptide enrichment with Zn^+ ion. Ground peptide mass changed into aggregates with complete enrichment. EDTA was added to aggregates. Subsequent to addition of EDTA the complex quickly dissociated and peptide (alloferon) changed to soluble phase.

Type I interferons = Type I interferons induction; settings: FIG. 6
Text: Type I interferons induction was studied by the previously published method [F. I. Yershov., O. I. Kiselev. Interferons and their inducers (from the molecule to the drug) M.: Publ. House. Geotar—Media, 2005-P. 356, Chernysh et al. 2002].

Compound	protective effect ([1]; […], mice observed 15 days)	diameter of polydisperse nanoparticles formed on peptide aggregation with Zn^++ [2]	interferon induction activity (Type I interferons)	protective effect (in words) ([1]; mouse, in vivo)
CC(N)C12CC3CC(CC(C3)C1)C2 (stereo not shown) [Remantadin]	80-87%	–	–	–
HGVSGHGQHGVHG [Alloferon A1, nonmodified base peptide]	–	50-60 nm	quite high level of interferon induction ability	comparable to efficiency of the protective effect of reference drug Remantadin
